Each molecule was assayed against T1, human cloned 5-HT6 receptors (Homo sapiens, UniProt P50406) (assay: 5-HT6 binding affinity ([3H]-LSD displacement, membranes of Hela cells expressing human cloned 5-HT6 receptors)). Conditions: [3H]-LSD 3.0 nM, Hela cell membranes, 120 min at room temperature.
T1 construct: expressed in transfected cells; host or cells: HeLa cells
Method: The affinity of test compounds for the serotonin 5-HT6 receptor is evaluated in the following manner. Cultured Hela cells expressing human cloned 5-HT6 receptors are harvested and centrifuged at low speed (1,000×g) for 10.0 min to remove the culture media. The harvested cells are suspended in half volume of fresh physiological phosphate buffered saline solution and recentrifuged at the same speed. This operation is repeated. The collected cells are then homogenized in ten volumes of 50 mM Tris.HCl (pH 7.4) and 0.5 mM EDTA. The homogenate is centrifuged at 40,000×g for 30.0 min and the precipitate is collected. The obtained pellet is resuspended in 10 volumes of Tris.HCl buffer and recentrifuged at the same speed. The final pellet is suspended in a small volume of Tris.HCl buffer and the tissue protein content is determined in aliquots of 10-25 μl volumes. Bovine Serum Albumin is used as the standard in the protein determination according to the method described in Lowry et al., J. Biol. Chem., 193:265 (1951). The volume of the suspended cell membranes is adjusted to give a tissue protein concentration of 1.0 mg/ml of suspension. The prepared membrane suspension (10 times concentrated) is aliquoted in 1.0 ml volumes and stored at −70° C. until used in subsequent binding experiments.
Binding experiments are performed in a 96 well microtiter plate format, in a total volume of 200 μl. […] The test compounds are added in 20.0 μl volume.
The reaction is allowed to proceed in the dark for 120 min at room temperature, at which time, the bound ligand-receptor complex is filtered off on a 96 well unifilter with a Packard Filtermate® 196 Harvester. The bound complex caught on the filter disk is allowed to air dry and the radioactivity is measured in a Packard TopCount® equipped with six photomultiplier detectors, after the addition of 40.0 μl Microscint®-20 scintillant to each shallow well. The unifilter plate is heat-sealed and counted in a PackardTopCount® with a tritium efficiency of 31.0%.
Binding in the presence of varying concentrations of test compound is expressed as a percentage of specific binding in the absence of test compound. The results are plotted as log % bound versus log concentration of test compound. […] A linear regression line of data points is plotted, from which the IC50 value is determined and the Ki value is determined based upon the following equation: Ki=IC50/(1+L/KD) where L is the concentration of the radioactive ligand used and KD is the dissociation constant of the ligand for the receptor, both expressed in nM.

T1 sequence (P50406 whole entry): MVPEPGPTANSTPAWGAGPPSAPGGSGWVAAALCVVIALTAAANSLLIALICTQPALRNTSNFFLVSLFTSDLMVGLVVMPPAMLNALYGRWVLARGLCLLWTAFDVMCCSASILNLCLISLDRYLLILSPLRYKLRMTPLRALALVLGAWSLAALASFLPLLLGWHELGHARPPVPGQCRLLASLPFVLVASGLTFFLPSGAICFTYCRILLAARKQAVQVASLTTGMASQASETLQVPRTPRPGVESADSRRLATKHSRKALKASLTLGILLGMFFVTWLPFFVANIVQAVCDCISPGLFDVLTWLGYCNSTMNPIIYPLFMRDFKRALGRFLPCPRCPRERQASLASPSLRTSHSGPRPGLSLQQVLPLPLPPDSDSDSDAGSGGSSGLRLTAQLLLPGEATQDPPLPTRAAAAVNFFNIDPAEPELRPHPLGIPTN

| Compound | Ki [nM] |
| --- | --- |
| CN(C)CCn1c(=O)n(S(=O)(=O)c2cccc(F)c2)c2cccnc21 [Example 4, 3-(2-dimethylaminoethyl)-1-[(3-fluorophenyl)sulfonyl]-1,3-dihydro-2H-imidazo[4,5-b]pyridin-2-one] | 80 |
| CN(C)CCn1c(=O)n(S(=O)(=O)c2cccc(Br)c2)c2cccnc21 [Example 7, 1-[(3-bromophenyl)sulfonyl]-3-[2-(dimethylamino)ethyl]-1,3-dihydro-2H-imidazo[4,5-b]pyridin-2-one] | 23 |
| NCCn1c(=O)n(S(=O)(=O)c2ccc(Cl)s2)c2cccnc21 [Example 14, 3-(2-Aminoethyl)-1-[(5-chlorothien-2-yl)sulfonyl]-1,3-dihydro-2H-imidazo[4,5-b]pyridin-2-one] | 18 |
| NCCn1c(=O)n(S(=O)(=O)c2ccccc2)c2cccnc21 [Example 15, 3-(2-aminoethyl)-1-(phenylsulfonyl)-1,3-dihydro-2H-imidazo[4,5-b]pyridin-2-one] | 44 |
| NCCn1c(=O)n(S(=O)(=O)c2ccccc2F)c2cccnc21 [Example 20, 3-(2-aminoethyl)-1-[(2-fluorophenyl)sulfonyl]-1,3-dihydro-2H-imidazo[4,5-b]pyridin-2-one] | 77 |
| NCCn1c(=O)n(S(=O)(=O)c2ccccc2Cl)c2cccnc21 [Example 22, 3-(2-aminoethyl)-1-[(2-chlorophenyl)sulfonyl]-1,3-dihydro-2H-imidazo[4,5-b]pyridin-2-one] | 55 |
| NCCn1c(=O)n(S(=O)(=O)c2ccc(Cl)cc2)c2cccnc21 [Example 23, 3-(2-aminoethyl)-1-[(4-chlorophenyl)sulfonyl]-1,3-dihydro-2H-imidazo[4,5-b]pyridin-2-one] | 17 |
| NCCn1c(=O)n(S(=O)(=O)c2cc(Cl)sc2Cl)c2cccnc21 [Example 27, 3-(2-aminoethyl)-1-[(2,5-dichlorothien-3-yl)sulfonyl]-1,3-dihydro-2H-imidazo[4,5-b]pyridin-2-one] | 22 |

Now those with a lower Ki, led by results:

| Ki [nM] | Compound |
| --- | --- |
| 16 | NCCn1c(=O)n(S(=O)(=O)c2cccc(Cl)c2)c2cccnc21 [Example 16, 3-(2-aminoethyl)-1-[(3-chlorophenyl)sulfonyl]-1,3-dihydro-2H-imidazo[4,5-b]pyridin-2-one] |
| 4 | NCCn1c(=O)n(S(=O)(=O)c2c(Cl)nc3sccn23)c2cccnc21 [Example 17, 3-(2-aminoethyl)-1-[(6-chloroimidazo[2,1-b][1,3]thiazol-5-yl)sulfonyl]-1,3-dihydro-2H-imidazo[4,5-b]pyridin-2-one] |
| 5 | NCCn1c(=O)n(S(=O)(=O)c2ccc3ccccc3c2)c2cccnc21 [Example 18, 3-(2-aminoethyl)-1-(2-naphthylsulfonyl)-1,3-dihydro-2H-imidazo[4,5-b]pyridin-2-one] |
| 14 | COc1cccc(S(=O)(=O)n2c(=O)n(CCN)c3ncccc32)c1 [Example 19, 3-(2-aminoethyl)-1-[(3-methoxyphenyl)sulfonyl]-1,3-dihydro-2H-imidazo[4,5-b]pyridin-2-one] |
| 9 | NCCn1c(=O)n(S(=O)(=O)c2cccc(Cl)c2Cl)c2cccnc21 [Example 24, 3-(2-aminoethyl)-1-[(2,3-dichlorophenyl)sulfonyl]-1,3-dihydro-2H-imidazo[4,5-b]pyridin-2-one] |
| 12 | NCCn1c(=O)n(S(=O)(=O)c2cccc(Br)c2)c2cccnc21 [Example 25, 3-(2-aminoethyl)-1-[(3-bromophenyl)sulfonyl]-1,3-dihydro-2H-imidazo[4,5-b]pyridin-2-one] |
| 9 | NCCn1c(=O)n(S(=O)(=O)c2ccc(Br)s2)c2cccnc21 [Example 26, 3-(2-aminoethyl)-1-[(5-bromothien-2-yl)sulfonyl]-1,3-dihydro-2H-imidazo[4,5-b]pyridin-2-one] |
